Reference: patent publication US20240317727A1 (Duke University, priority 2018, published 2024)

Legend:
HL-60(TB) = experiment: cells; format: cell-based; settings: Leukemia, two days
SNB-75 = experiment: NCI60 cell growth and viability: SNB-75; format: cell-based; settings: SNB-75, CNS Cancer, two days
SK-MEL-2 = experiment: NCI60 cell growth and viability: SK-MEL-2; format: cell-based; settings: SK-MEL-2, Melanoma, two days
U251 = experiment: NCI60 cell growth and viability: U251; format: cell-based; settings: U251, CNS Cancer, two days
786-0 = experiment: NCI60 cell growth and viability: 786-0; format: cell-based; settings: 786-0, Renal Cancer, two days
OVCAR-3 = experiment: NCI60 cell growth and viability: OVCAR-3
MCF7 = experiment: NCI60 cell growth and viability: MCF7; format: cell-based; settings: MCF7, Breast Cancer, two days
LOX IMVI = experiment: NCI60 cell growth and viability: LOX IMVI; format: cell-based; settings: Melanoma, two days
NCI/ADR-RES = experiment: NCI60 cell growth and viability: NCI/ADR-RES; format: cell-based; settings: Ovarian Cancer, two days
SK-MEL-5 = experiment: NCI60 cell growth and viability: SK-MEL-5; format: cell-based; settings: SK-MEL-5, Melanoma, two days
KM12 = experiment: NCI60 cell growth and viability: KM12; format: cell-based; settings: KM12, Colon Cancer, two days
OVCAR-8 = experiment: NCI60 cell growth and viability: OVCAR-8; format: cell-based; settings: OVCAR-8, Ovarian Cancer, two days
EKVX = experiment: NCI60 cell growth and viability: EKVX; format: cell-based; settings: Non-Small Cell Lung Cancer, two days
SW-620 = experiment: NCI60 cell growth and viability: SW-620; format: cell-based; settings: SW-620, Colon Cancer, two days
[1] = system: C4/2 prostate cancer cells; experiment: Mouse xenograft model of Prostate Cancer; format: in vivo; settings: nude mice, 25 mg/kg every other day intraperitoneal, vs vehicle
Protocol: FIGS. 7A and 7B are graphs showing that the compounds of the disclosure inhibit tumor growth in a mouse xenograft model of Prostate Cancer. Nude mice were inoculated on their flank with one million C4/2 prostate cancer cells (n=20 mice). One week after inoculation, tumors were apparent and mice were then treated with either vehicle (n=10 mice) or Compound 0017 (n=10 mice) at 25 mg/kg every other day by intraperitoneal administration. On the indicated days after the start of vehicle or Compound 0017 administration, tumors were measured in situ with a caliper and tumor volume calculated in cubic millimeters (FIG. 7A). Simultaneously, mouse weight was determined (FIG. 7B). Error bars represent standard error of the mean. **=P<0.01 in accordance with one embodiment of the present disclosure.

HSF1 target gene, Hsp70 = experiment: Hsp70 transcript in mouse liver and heart tissue, qRT-PCR; format: in vivo; settings: mice, 25 mpk three times per week i.p., vs vehicle, relative to GAPDH, FIG. 6B
Protocol: The cells were treated for 96 hours with the indicated concentrations of the compounds of the disclosure and cell viability was measured with the AlamarBlue assay. […]. […] After sacrificing the mice on the last day of the administration, mouse liver and heart tissue was isolated, messenger RNA extracted and the transcript abundance of the HSF1 target gene, Hsp70, was evaluated by qRT-PCR relative to the internal RNA control, GAPDH. The results of the vehicle-treated versus Compound 0017-treated experiments were compared. […]; **=P<0.01 in accordance with one embodiment of the present disclosure.

PC-3 = experiment: NCI60 cell growth and viability: PC-3; format: cell-based; settings: PC-3, Prostate Cancer, two days
[2] = 7-week Maximal Tolerated Dose (MTD) study in mice; format: in vivo; settings: 25 mpk three times per week, intra-peritoneal, 7 weeks
HCT-116 = experiment: NCI60 cell growth and viability: HCT-116; format: cell-based; settings: HCT-116, Colon Cancer, two days
NCI-H460 = format: cell-based; settings: NCI-H460, Non-Small Cell Lung Cancer, two days
[3] = Homo sapiens, 48 h, read-out: log10 [GI50 (M)] (converted)
[4] = Homo sapiens, 48 h, read-out: log10 [LC50 (M)] (converted)

## O=C(Nc1ccc(F)cc1)Nc1ccc(Cl)c([N+](=O)[O-])c1 [Compound 0017, 1-(4-chloro-3-nitrophenyl)-3-(4-fluorophenyl)urea]
HL-60(TB); [3]
  GI50: 2.51e-06 M
HL-60(TB); [4]
  CC50: ≥ 0.0001 M
HL-60(TB)
  log10 [TGI (M)]: −5.07 log10 M
SNB-75; [3]
  GI50: 5.89e-06 M
SNB-75; [4]
  CC50: ≥ 0.0001 M
SNB-75
  log10 [TGI (M)]: −4.00 log10 M
SK-MEL-2; [3]
  GI50: 2.34e-06 M
SK-MEL-2; [4]
  CC50: 2.51e-05 M
SK-MEL-2
  log10 [TGI (M)]: −5.23 log10 M
U251; Homo sapiens, U-251, 48 h, read-out: log10 [GI50 (M)] (converted)
  GI50: 3.16e-06 M
U251; Homo sapiens, U-251, 48 h, read-out: log10 [LC50 (M)] (converted)
  CC50: 4.37e-05 M
U251
  log10 [TGI (M)]: −4.90 log10 M
786-0
  log10 [TGI (M)]: −4.88 log10 M
786-0; [3]
  GI50: 3.39e-06 M
786-0; [4]
  CC50: 3.8e-05 M
OVCAR-3; Homo sapiens, OVCAR-3, 48 h, read-out: log10 [GI50 (M)] (converted)
  GI50: 3.8e-06 M
OVCAR-3; Homo sapiens, OVCAR-3, 48 h, read-out: log10 [LC50 (M)] (converted)
  CC50: 9.55e-05 M
OVCAR-3; OVCAR-3, Ovarian Cancer, two days
  log10 [TGI (M)]: −4.72 log10 M
MCF7; [3]
  GI50: 2.63e-06 M
MCF7; [4]
  CC50: 7.08e-05 M
MCF7
  log10 [TGI (M)]: −4.92 log10 M
LOX IMVI; [3]
  GI50: 3.55e-06 M
LOX IMVI; [4]
  CC50: 4.07e-05 M
LOX IMVI
  log10 [TGI (M)]: −4.91 log10 M
NCI/ADR-RES; [3]
  GI50: 2.57e-06 M
NCI/ADR-RES; [4]
  CC50: ≥ 0.0001 M
NCI/ADR-RES
  log10 [TGI (M)]: −4.99 log10 M
SK-MEL-5; [3]
  GI50: 1.78e-06 M
SK-MEL-5; [4]
  CC50: 5.89e-06 M
SK-MEL-5
  log10 [TGI (M)]: −5.49 log10 M
KM12; [3]
  GI50: 3.31e-06 M
KM12; [4]
  CC50: 9.12e-05 M
KM12
  log10 [TGI (M)]: −4.86 log10 M
OVCAR-8; [3]
  GI50: 2.95e-06 M
OVCAR-8; [4]
  CC50: ≥ 0.0001 M
OVCAR-8
  log10 [TGI (M)]: −4.82 log10 M
EKVX; [3]
  GI50: 2.82e-06 M
EKVX; [4]
  CC50: 6.17e-05 M
EKVX
  log10 [TGI (M)]: −4.96 log10 M
SW-620; [3]
  GI50: 3.47e-06 M
SW-620; [4]
  CC50: 4.79e-05 M
SW-620
  log10 [TGI (M)]: −4.86 log10 M
[1]; FIG. 7B
  mouse weight: without impacting the weight
[1]; C4-2 derived tumors, 21-day, FIG. 7A
  tumor growth (tumor volume): inhibits the growth
HSF1 target gene, Hsp70
  Hsp70 transcript abundance in liver and heart tissue: inhibits expression of the HSF1 target Hsp70
PC-3; [3]
  GI50: 1.58e-06 M
PC-3; [4]
  CC50: 4.37e-05 M
PC-3
  log10 [TGI (M)]: −4.95 log10 M
[2]
  tolerability: well tolerated
HCT-116
  log10 [TGI (M)]: −4.93 log10 M
HCT-116; [3]
  GI50: 3.09e-06 M
HCT-116; [4]
  CC50: 3.47e-05 M
NCI-H460; [3]
  GI50: 2.69e-06 M
NCI-H460; [4]
  CC50: 4.57e-05 M
NCI-H460
  log10 [TGI (M)]: −4.94 log10 M
